Experimental data reported in PubChem BioAssay (NCI).
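Exposure lasted 48 hours, with cells grown in 96-well plates and compounds tested at five concentrations. The concentration for 50% growth inhibition is given as GI50. Definition used: TGI = concentration required for complete inhibition of growth.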

Legend:
Assay in all cases: inhibition of tumour cell growth, NCI panel, 48 h
MALME-3M melanoma = tested on: MALME-3M melanoma
LOX IMVI melanoma = tested on: LOX IMVI melanoma
SNB-75 CNS = tested on: SNB-75 CNS
COLO 205 colon = tested on: COLO 205 colon
SK-OV-3 ovarian = tested on: SK-OV-3 ovarian
SF-295 CNS = tested on: SF-295 CNS
NCI-H226 lung = tested on: NCI-H226 lung
786-0 renal = tested on: 786-0 renal
MCF7 breast = tested on: MCF7 breast
NCI-H460 lung = tested on: NCI-H460 lung
CCRF-CEM leukemia = tested on: CCRF-CEM leukemia
BT-549 breast = tested on: BT-549 breast
TK-10 renal = tested on: TK-10 renal
HOP-62 NSCLC = tested on: HOP-62 NSCLC
HOP-92 NSCLC = tested on: HOP-92 NSCLC
SF-268 CNS = tested on: SF-268 CNS
U251 CNS = tested on: U251 CNS
ACHN renal = tested on: ACHN renal
OVCAR-5 ovarian = tested on: OVCAR-5 ovarian
SW-620 colon = tested on: SW-620 colon
UACC-62 melanoma = tested on: UACC-62 melanoma
OVCAR-4 ovarian = tested on: OVCAR-4 ovarian
A549 NSCLC = tested on: A549 NSCLC
SR leukemia = tested on: SR leukemia
RXF 393 renal = tested on: RXF 393 renal
SN12C renal = tested on: SN12C renal
SNB-19 CNS = tested on: SNB-19 CNS
HS 578T breast = tested on: HS 578T breast
RPMI-8226 leukemia = tested on: RPMI-8226 leukemia
NCI-H522 lung = tested on: NCI-H522 lung
NCI-H23 lung = tested on: NCI-H23 lung
OVCAR-3 ovarian = tested on: OVCAR-3 ovarian
HT29 colon = tested on: HT29 colon
A498 renal = tested on: A498 renal
CAKI-1 renal = tested on: CAKI-1 renal
PC-3 prostate = tested on: PC-3 prostate
HCT-15 colon = tested on: HCT-15 colon
UO-31 renal = tested on: UO-31 renal
NCI/ADR-RES ovarian = tested on: NCI/ADR-RES ovarian
OVCAR-8 ovarian = tested on: OVCAR-8 ovarian
M14 melanoma = tested on: M14 melanoma
T-47D breast = tested on: T-47D breast
K-562 leukemia = tested on: K-562 leukemia
SF-539 CNS = tested on: SF-539 CNS
SK-MEL-2 melanoma = tested on: SK-MEL-2 melanoma
IGROV1 ovarian = tested on: IGROV1 ovarian
SK-MEL-28 melanoma = tested on: SK-MEL-28 melanoma
MOLT-4 leukemia = tested on: MOLT-4 leukemia
HCC-2998 colon = tested on: HCC-2998 colon
MDA-MB-231 breast = tested on: MDA-MB-231 breast
DU-145 prostate = tested on: DU-145 prostate
KM12 colon = tested on: KM12 colon
HL-60(TB) leukemia = tested on: HL-60(TB) leukemia
SK-MEL-5 melanoma = tested on: SK-MEL-5 melanoma
UACC-257 melanoma = tested on: UACC-257 melanoma
MDA-MB-435 = tested on: MDA-MB-435
HCT-116 colon = tested on: HCT-116 colon

Cn1ncnc1C1c2n[nH]c(=O)c3cc(F)cc(c23)NC1c1ccc(F)cc1 (stereo not drawn)
GI50 (MALME-3M melanoma): > 100 µM
TGI (MALME-3M melanoma): > 100 µM
GI50 (LOX IMVI melanoma): 6.63 µM
TGI (LOX IMVI melanoma): > 100 µM
GI50 (SNB-75 CNS): 9.8 µM
TGI (SNB-75 CNS): > 100 µM
GI50 (COLO 205 colon): > 100 µM
TGI (COLO 205 colon): > 100 µM
GI50 (SK-OV-3 ovarian): > 42.7 µM
TGI (SK-OV-3 ovarian): > 100 µM
GI50 (SF-295 CNS): 1010 nM
TGI (SF-295 CNS): > 100 µM
GI50 (NCI-H226 lung): > 100 µM
TGI (NCI-H226 lung): > 100 µM
GI50 (786-0 renal): > 100 µM
TGI (786-0 renal): > 100 µM
GI50 (MCF7 breast): 1570 nM
TGI (MCF7 breast): > 100 µM
GI50 (NCI-H460 lung): 193 nM
TGI (NCI-H460 lung): > 100 µM
GI50 (CCRF-CEM leukemia): 3.13 µM
TGI (CCRF-CEM leukemia): > 100 µM
GI50 (BT-549 breast): > 69.9 µM
TGI (BT-549 breast): > 100 µM
GI50 (TK-10 renal): > 34.2 µM
TGI (TK-10 renal): > 100 µM
GI50 (HOP-62 NSCLC): 7.79 µM
TGI (HOP-62 NSCLC): > 100 µM
GI50 (HOP-92 NSCLC): 39.9 µM
TGI (HOP-92 NSCLC): > 100 µM
GI50 (SF-268 CNS): 3.3 µM
TGI (SF-268 CNS): > 100 µM
GI50 (U251 CNS): 2180 nM
TGI (U251 CNS): > 100 µM
GI50 (ACHN renal): 29.4 µM
TGI (ACHN renal): > 100 µM
GI50 (OVCAR-5 ovarian): > 100 µM
TGI (OVCAR-5 ovarian): > 100 µM
GI50 (SW-620 colon): > 41 µM
TGI (SW-620 colon): > 100 µM
GI50 (UACC-62 melanoma): > 100 µM
TGI (UACC-62 melanoma): > 100 µM
GI50 (OVCAR-4 ovarian): 12.7 µM
TGI (OVCAR-4 ovarian): > 100 µM
GI50 (A549 NSCLC): 7.9 µM
TGI (A549 NSCLC): > 100 µM
GI50 (SR leukemia): < 26.5 nM
TGI (SR leukemia): > 62.5 µM
GI50 (RXF 393 renal): 22.2 µM
TGI (RXF 393 renal): > 100 µM
GI50 (SN12C renal): 4.43 µM
TGI (SN12C renal): > 100 µM
GI50 (SNB-19 CNS): 11.2 µM
TGI (SNB-19 CNS): > 100 µM
GI50 (HS 578T breast): > 100 µM
TGI (HS 578T breast): > 100 µM
GI50 (RPMI-8226 leukemia): > 100 µM
TGI (RPMI-8226 leukemia): > 100 µM
GI50 (NCI-H522 lung): > 100 µM
TGI (NCI-H522 lung): > 100 µM
TGI (NCI-H23 lung): > 100 µM
GI50 (OVCAR-3 ovarian): > 100 µM
TGI (OVCAR-3 ovarian): > 100 µM
GI50 (HT29 colon): > 100 µM
TGI (HT29 colon): > 100 µM
GI50 (A498 renal): 5 µM
TGI (A498 renal): > 94.3 µM
GI50 (CAKI-1 renal): 9.37 µM
TGI (CAKI-1 renal): > 100 µM
GI50 (PC-3 prostate): > 100 µM
TGI (PC-3 prostate): > 100 µM
GI50 (HCT-15 colon): > 100 µM
TGI (HCT-15 colon): > 100 µM
GI50 (UO-31 renal): 11.9 µM
TGI (UO-31 renal): > 100 µM
GI50 (NCI/ADR-RES ovarian): > 100 µM
TGI (NCI/ADR-RES ovarian): > 100 µM
GI50 (OVCAR-8 ovarian): > 100 µM
TGI (OVCAR-8 ovarian): > 100 µM
GI50 (M14 melanoma): 3.52 µM
TGI (M14 melanoma): > 100 µM
GI50 (T-47D breast): > 100 µM
TGI (T-47D breast): > 100 µM
GI50 (K-562 leukemia): > 100 µM
TGI (K-562 leukemia): > 100 µM
GI50 (SF-539 CNS): 5.39 µM
TGI (SF-539 CNS): > 100 µM
GI50 (SK-MEL-2 melanoma): > 100 µM
TGI (SK-MEL-2 melanoma): > 100 µM
GI50 (IGROV1 ovarian): > 100 µM
TGI (IGROV1 ovarian): > 100 µM
GI50 (SK-MEL-28 melanoma): > 100 µM
TGI (SK-MEL-28 melanoma): > 100 µM
GI50 (MOLT-4 leukemia): 3.25 µM
TGI (MOLT-4 leukemia): > 100 µM
GI50 (HCC-2998 colon): > 100 µM
TGI (HCC-2998 colon): > 100 µM
GI50 (MDA-MB-231 breast): > 100 µM
TGI (MDA-MB-231 breast): > 100 µM
GI50 (DU-145 prostate): 4.14 µM
TGI (DU-145 prostate): > 100 µM
GI50 (KM12 colon): > 100 µM
TGI (KM12 colon): > 100 µM
GI50 (HL-60(TB) leukemia): 4.86 µM
TGI (HL-60(TB) leukemia): > 100 µM
GI50 (SK-MEL-5 melanoma): > 100 µM
TGI (SK-MEL-5 melanoma): > 100 µM
GI50 (UACC-257 melanoma): > 100 µM
TGI (UACC-257 melanoma): > 100 µM
GI50 (MDA-MB-435): > 100 µM
TGI (MDA-MB-435): > 100 µM
GI50 (HCT-116 colon): 25.8 µM
TGI (HCT-116 colon): > 100 µM
